From patent US9284297B2, “Halofuginone analogs for inhibition of tRNA synthetases and uses thereof” (President and Fellows of Harvard College, priority 2008, dated 2016)

Experiments:
[1] = test system: SV-MES mesangial cells (GCN2 Thr898, eIF2alpha Ser51 phosphorylation); assay: AAR activation in cultured fibroblastic cells, western blot; format: cell-based; conditions: 20 nM; 2 hours
From the text: Duplicate cell samples are shown. […] Activated GCN2 phosphorylates eif2alpha at Ser 51, therefore this is an expected downstream outcome of AAR activation.

[2] = test system: Th17 differentiation of CD4+ CD25− T cells; assay: Th17 differentiation of CD4+ CD25− T cells (IL-17+ IFNγ− cells, intracellular cytokine staining)
Description: Purified CD4^+ CD25^− T cells were activated in vitro as previously described (Djuretic et al., Nat. Immunol. 8:145, 2007) using 0.3 μg/ml hamster anti-mouse CD3 (clone 145-2C11) (ATCC, Manassas, Va.) and 0.5 μg/ml hamster anti-mouse CD28 (BD Pharmingen, San Jose, Calif.). Activated cell cultures were differentiated using the following combinations of cytokines and antibodies: iTreg—recombinant human TGFβ1 (3 ng/ml—R&D systems, Minneapolis, Minn.), Th17-TGFβ1 (3 ng/ml) plus recombinant mouse IL-6 (30 ng/ml—R&D systems). […] Human IL-2 supernatant (National Cancer Institute) was used in culture at 0.01 U/ml and was added at 48 hours-post activation when T cells were split into tissue culture wells lacking CD3 and CD28 antibodies, with the exception of Th17 cultures that were maintained in the absence of exogenous IL-2. […] All reagents (see below) were added at the time of T cell activation and again at 48 hours post activation unless indicated otherwise.
For detection of intracellular cytokines in murine cells, cultured T or B cells were stimulated with 10 nM PMA (Sigma) and 1 mM ionomycin (Sigma) for 4-5 hours in the presence of 10 mM brefeldin A (Sigma). Stimulated cells were harvested, washed with PBS and fixed with PBS plus 4% paraformaldehyde at room temperature for 20 minutes. Cells were then washed with PBS, permeabilized with PBS supplemented with 1% BSA and 0.5% saponin (Sigma) at room temperature for 10 minutes before cytokine-specific antibodies were added and incubated with cells for an additional 20 minutes at room temperature. […] All stained cells were stored at 4° C. in PBS plus 1% paraformaldehyde prior to FACS analyses.
All cell surface staining was performed in FACS buffer (PBS/2% FBS/0.1% NaN3) and antibodies were incubated with cells on ice for 20-30 minutes. Cells were washed with FACS buffer and fixed with FACS buffer plus 1% paraformaldehyde prior to data acquisition.

[3] = test system: Differentiation of primary naïve T-cells into Th17 cells; assay: Inhibition of Th17 differentiation of primary naïve T-cells by halofuginone analogs; format: cell-based, murine; set-up: key: “+++” vs. “++” vs. “+” in general denotes ˜4-fold differences in potency; “+++” vs. “++” vs. “+” in general denotes ˜4-fold differences in potency; “+++” vs. “++” vs. “+” in general denotes ˜4-fold differences in potency; “−” denotes no activity at any dose tested, up to 1000× the effective dose of halofuginone; conditions: T-cell receptor stimulation+IL-6+TGFb
Description: Naïve T-cells were stimulated to differentiate in the presence or absence of 10 nM halofuginone, with 1 mM of the indicated amino acids added to the medium, and stained for Th17 differentiation on day 4. Naïve murine T cells were activated in the presence or absence of TGFβ plus IL-6 as indicated, expanded in for 4 days and restimulated with PMA and ionomycin for intracellular cytokine staining. […] Bars indicate percentage of cells differentiation as Th17 as indicated by IL17 expression.
The effect of different halofuginone and analogs thereof on differentiation of naïve T-cells was assayed as described in legend for FIG. 4 above. Differentiation of primary naïve T-cells into Th17 cells following T-cell receptor stimulation+IL-6+TGFb. “+++” vs. “++” vs. “+” in general denotes ˜4-fold differences in potency. “−” denotes no activity at any dose tested, up to 1000× the effective dose of halofuginone.

[4] = molecular target: T1, prolyl-tRNA synthetase (EPRS) (Oryctolagus cuniculus, UniProt G1T2I4); assay: Incorporation of 14C-labeled proline into tRNA in rabbit reticulocyte lysate; format: biochemical; conditions: crude in vitro translation system
T1 construct: from tissue; host or cells: rabbit reticulocyte lysate
T1 sequence (G1T2I4 1-1447): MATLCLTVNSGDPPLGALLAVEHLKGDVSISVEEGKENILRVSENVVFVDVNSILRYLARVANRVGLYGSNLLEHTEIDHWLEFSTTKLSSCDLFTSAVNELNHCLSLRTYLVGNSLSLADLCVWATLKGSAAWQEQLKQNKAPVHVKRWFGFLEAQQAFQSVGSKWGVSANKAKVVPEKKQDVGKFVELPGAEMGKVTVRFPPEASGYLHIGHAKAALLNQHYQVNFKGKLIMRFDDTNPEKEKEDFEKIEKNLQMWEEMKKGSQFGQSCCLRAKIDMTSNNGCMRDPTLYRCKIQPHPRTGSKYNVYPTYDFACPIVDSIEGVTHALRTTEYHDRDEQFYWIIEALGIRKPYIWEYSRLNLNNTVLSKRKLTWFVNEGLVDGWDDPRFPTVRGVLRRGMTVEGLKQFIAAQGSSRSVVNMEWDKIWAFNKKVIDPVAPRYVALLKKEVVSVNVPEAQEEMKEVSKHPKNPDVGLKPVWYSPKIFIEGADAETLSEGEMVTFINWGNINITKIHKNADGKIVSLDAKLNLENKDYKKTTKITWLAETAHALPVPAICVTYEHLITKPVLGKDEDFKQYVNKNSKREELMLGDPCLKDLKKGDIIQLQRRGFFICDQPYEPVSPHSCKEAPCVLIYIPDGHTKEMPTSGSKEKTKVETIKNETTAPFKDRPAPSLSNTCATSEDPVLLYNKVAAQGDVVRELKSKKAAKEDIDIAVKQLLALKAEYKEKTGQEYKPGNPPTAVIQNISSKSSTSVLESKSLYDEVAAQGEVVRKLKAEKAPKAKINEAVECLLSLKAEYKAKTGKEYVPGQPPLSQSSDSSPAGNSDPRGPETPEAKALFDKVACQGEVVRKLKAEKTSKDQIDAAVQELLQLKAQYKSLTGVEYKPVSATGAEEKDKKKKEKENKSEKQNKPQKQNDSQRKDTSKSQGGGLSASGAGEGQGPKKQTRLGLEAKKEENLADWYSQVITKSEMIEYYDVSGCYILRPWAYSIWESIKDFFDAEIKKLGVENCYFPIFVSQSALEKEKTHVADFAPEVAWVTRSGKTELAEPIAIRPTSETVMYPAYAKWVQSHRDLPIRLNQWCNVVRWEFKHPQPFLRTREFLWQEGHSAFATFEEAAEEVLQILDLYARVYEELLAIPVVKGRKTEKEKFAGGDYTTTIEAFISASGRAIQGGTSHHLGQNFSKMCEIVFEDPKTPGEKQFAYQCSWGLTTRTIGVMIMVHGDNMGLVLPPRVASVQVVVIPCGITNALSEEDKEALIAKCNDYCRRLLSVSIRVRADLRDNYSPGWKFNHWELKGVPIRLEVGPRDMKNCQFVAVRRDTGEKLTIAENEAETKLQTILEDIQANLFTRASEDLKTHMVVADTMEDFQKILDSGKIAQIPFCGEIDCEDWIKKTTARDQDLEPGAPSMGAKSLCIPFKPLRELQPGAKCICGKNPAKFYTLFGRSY
Description: Total RNA was extracted with acidic phenol-chloroform and tRNA was isolated using miRVANA microRNA isolation kit. Radioisotope incorporation into tRNA was measured in a scintillation counter.

`O=C(CC1NCCCC1O)Cn1cnc2cc(Br)c(Cl)cc2c1=O` (centres unmarked) [Compound 1, 7-bromo-6-chloro-3-[3-(3-hydroxy-2-piperidinyl)-2-oxopropyl]-4(3H)-quinazolinone] was tested, and the “AAR activation (GCN2 Thr898 and eIF2alpha Ser51 phosphorylation)” value [1] was “activates the AAR”, the “rescue of inhibited Th17 differentiation by added amino acids” value ([2]; 10 nM halofuginone, 1 mM of the indicated amino acids) was “Proline, and no other added amino acid, rescues the inhibition of Th17 differentiation” and the IC50 ([2]; Mus musculus, T-cell, 96 h, read-out: IC50, Th17 differentiation) was 3.6 nM. The “Inhibition of Th17 differentiation” value [3] was “+++” and the “inhibition of 14C proline incorporation into tRNA” value [4] was “inhibitor of prolyl-tRNA synthetase (EPRS)”.
